From patent US7528151B2, “Heterocyclic urea derivatives for the treatment of pain” (Glaxo Group Limited, priority 2003, dated 2009)
Counter-ions that a name gives are not always drawn.

Molecular target: T1, human VR1 (Homo sapiens, UniProt Q8NER1)
T1 construct: expressed in transfected cells
Assay: FLIPR based calcium assay, capsaicin-induced response in 1321N1 cells stably expressing human VR1
Assay type: cell-based
Settings: antagonism of capsaicin response; pKb generated from IC50 using the Cheng-Prusoff equation
Description: Transfected astrocytoma 1321N1 cells, stably expressing human VR1, were seeded into FLIPR plates at 25,000cells/well (96-well plate) and cultured overnight. The cells were subsequently loaded in medium containing 4 μM Fluo-3 AM (Molecular Probes) for 2 hours, at room temperature, in the dark. The plates were then washed 4 times with Tyrode containing 1.5 mM calcium, without probenecid. The cells were pre-incubated with compound or buffer control at room temperature for 30 minutes. Capsaicin (Sigma) was then added to the cells. Compounds having antagonist activity against the human VR1 were identified by detecting differences in fluorescence when measured after capsaicin addition, compared with no compound buffer controls.

T1 sequence (Q8NER1 whole entry): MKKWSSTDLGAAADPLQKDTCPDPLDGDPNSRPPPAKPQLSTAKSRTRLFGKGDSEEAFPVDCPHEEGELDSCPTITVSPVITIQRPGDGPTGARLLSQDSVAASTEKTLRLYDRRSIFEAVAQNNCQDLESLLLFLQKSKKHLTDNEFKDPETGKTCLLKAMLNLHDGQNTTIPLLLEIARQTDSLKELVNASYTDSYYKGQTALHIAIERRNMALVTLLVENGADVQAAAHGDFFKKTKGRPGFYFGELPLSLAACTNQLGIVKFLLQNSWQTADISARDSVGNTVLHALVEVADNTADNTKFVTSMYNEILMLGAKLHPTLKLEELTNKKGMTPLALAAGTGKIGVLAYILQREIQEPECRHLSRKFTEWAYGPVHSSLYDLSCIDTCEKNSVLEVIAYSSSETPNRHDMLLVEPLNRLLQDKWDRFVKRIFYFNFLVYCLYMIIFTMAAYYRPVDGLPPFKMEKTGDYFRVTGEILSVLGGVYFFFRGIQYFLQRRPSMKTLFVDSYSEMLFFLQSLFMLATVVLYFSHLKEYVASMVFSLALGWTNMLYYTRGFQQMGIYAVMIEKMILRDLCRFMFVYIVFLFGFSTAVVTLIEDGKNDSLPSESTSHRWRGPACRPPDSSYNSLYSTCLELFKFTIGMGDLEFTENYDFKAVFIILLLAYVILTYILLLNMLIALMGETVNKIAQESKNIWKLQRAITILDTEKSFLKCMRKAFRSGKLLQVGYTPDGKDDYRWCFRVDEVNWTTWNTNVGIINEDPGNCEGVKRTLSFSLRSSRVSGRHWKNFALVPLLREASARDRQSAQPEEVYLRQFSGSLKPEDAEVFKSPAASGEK

`Cc1nccc2c(NC(=O)NC3CCN(c4ncc(C(F)(F)F)cc4Cl)CC3)cccc12` [Example 1, 1-([3-Chloro-5-trifluoromethylpyridinyl-2-yl]piperidin-4-yl)-3-(1-methyl-isoquinolin-5-yl)-urea hydrochloride] was tested, and the Kb was under 100 nM.
`COc1nc(N2CCC(NC(=O)Nc3cccc4c(C)nccc34)CC2)ccc1C(F)(F)F` [Example 2, 1-([6-Methoxy-5-trifluoromethylpyridinyl-2-yl]piperidin-4-yl)-3-(1-methyl-isoquinolin-5-yl)-urea hydrochloride] showed a Kb of under 100 nM.
